“Also recorded” adds a separate entry of the source.
What was measured:
Format in all cases: cell-based, human
IR condensates [1] = experiment: Imaging of IR puncta/condensates (immunofluorescence, IR-GFP) in HepG2 cells
Protocol: For insulin sensitivity and resistance experiments in HepG2 cells, cells were washed with EMEM once and cultured in EMEM for two days. […] To wash out insulin, cells were washed in EMEM seven times, which includes three quick washes, three 5 min washes and a long 20 minute-wash in EMEM at 37° C. In order to investigate insulin response, cells were acutely treated for 5 min with insulin diluted in EMEM supplemented with 1.25% fatty acid-free BSA at 37° C. with 5% CO2 in a humidified incubator.
Metformin (SIGMA, D150959-5G) was resuspended in sterile water to a concentration of 1M and diluted to the reported concentrations in the figures in cell media. […]
HepG2 cells, human liver spheroids and human tissue liver sections were fixed in 4% PFA (VWR, BT140770-10X10) in PBS for 10 min at room temperature. Cells were washed in PBS three times for 5 min and then blocked with 4% IgG-free BSA (VWR, 102643-516) for 15-60 min at room temperature. Cells were then incubated with 1:500 primary antibody in 4% IgG-free BSA at 4° C. overnight. The next day, cells were washed three times with PBS and incubated with 1:500 secondary antibodies in 4% IgG-free BSA at room temperature for 1 hr covered in foil. Cells were washed three times with PBS for 5 min. DNA was stained using 1:5000 Hoechst in PBS for 5 min at RT. Cells were washed three times with PBS for 5 min, stored at 4° C. until imaging. For tissue sections, samples were mounted using Vectashield mounting media (Vector Laboratories, Inc, H-1000). LSM880 microscope with Airyscan detector (ZEISS) was used for image acquisition. Images were then processed using Fiji/ImageJ v2.1.0/153c.
Cells expressing endogenous IR tagged with GFP were grown on 35 mm glass bottom dishes (MatTek Corporation, P35G-1.5-20-C). Cells were imaged at 37° C. using the SM880 Microscope with Airyscan detector with 63× objective and Zen Black software (ZEISS) at the W.M. Keck Microscopy Facility, MIT. Images were then processed using Fiji/ImageJ v2.1.0/153c.
To quantify IR fluorescent signal in puncta, Fiji/ImageJ v2.1.0/153c was used. A circle or an oval was drawn around IR puncta using the oval selection tool and the average fluorescence intensity in the circle/oval (=in the puncta) was determined using the measure tool on Fiji. Background was then subtracted as previously described. To quantify IR fluorescent signal at puncta in various cellular compartments, applicant identified the location of the plasma membrane, cytoplasm, nucleus and RNA FISH spots as follows. The plasma membrane location was identified based on IR immunofluorescence signal, IR-GFP fluorescent signal or CK18 immunofluorescence signal or cell edge. The nucleus was determined by the Hoechst stain for immunofluorescence and tc-PALM experiments or by IR-GFP fluorescence when HepG2 cells expressing IR-GFP were imaged. Given the overlap between Hoechst fluorescence and GFP fluorescence, artefactual green fluorescence coming from the Hoechst confounded IR puncta identification in the nucleus. Since the differences in IR puncta intensity and concentration between cytoplasm and nucleus in HepG2 cells was clear, nuclear outline was easily drawn based on IR-GFP fluorescent signal. Cytoplasm was considered the region between the plasma membrane and the nucleus. RNA FISH spots were identified based on RNA FISH probe fluorescence. Within the FISH spot, IR intensity was measured using the measure tool.
To estimate the number of IR puncta at the plasma membrane, cytoplasm, nucleus or in entire cells, IR puncta were initially counted in a cell slice using Fiji. The number obtained from the cell slice was then multiplied based on the estimated size of the plasma membrane, cytoplasm, nucleus or entire cell, which were obtained considering the length and width of the cell under investigation and the estimated height (˜5 um). […]

IR condensates [2] = experiment: tc-PALM of IR cluster/condensate dynamics in HepG2 cells expressing IR-Dendra2; conditions: insulin sensitive cells; 20 mM H2O2
Protocol: Widefield Live-cell super-resolution imaging was performed in a photo-activation localization microscopy (PALM) approach using a Nikon Eclipse Ti microscope with a 100× oil immersion objective. The 405 nm and 561 nm laser beams were combined in an external platform with customized power densities to image Dendra2-tagged molecules as previously reported (56). Cells were maintained at 37° C. in a temperature-controlled platform during imaging, and the CO2 level was maintained at 5% by Leibovitz's L-15 Medium with no phenol red (ThermoFisher #21083027). In each imaging cycle, a 2400-frame video stream including a (256 pixel)2 region of interest (ROI) was recorded in 20 Hz acquisition rate with the EM-gain setting as 1000 on an Andor iXon Ultra 897 EMCCD. Each pixel conjugates with a (160 nm)2 area on the sample side. After PALM imaging, the Hoechst-stained nuclei of the same ROI were imaged with stronger 405 nm excitation through DAPI filter.
Detection localization. For each frame of a raw image, Gaussian particles were identified by pixelwise test of hypotheses, whose peak positions were individually fitted at subpixel resolution by maximum-likelihood regression with Gauss-Newton method (91). An additional deflation loop was performed to avoid missing dimmer particles when they were overshadowed by neighboring brighter ones. This multi-particle detection localization procedure has been integrated in a published, open-source MATLAB software called MTT (91).
Spatial clustering. DBSCAN and “manual selection” hybridized approach was applied to group spatially clustered detections via the qSR software (92). Firstly, DBSCAN was performed to generalize a proposal map of spatially clustered detections. Given that IR condensates can be tiny and transient, a “loose” parameter setting was used when performing the DBSCAN (length-scale=120 nm, N_min=4). This parameter combination was determined by comparing the rendered super-resolved reconstructions with the color-coded cluster maps until the clustering results visually make sense for most ROIs. Secondly, individual clusters were manually selected based on the clustering proposal map from last step. Some custom MATLAB code was used to reconstruct the IR distribution of each ROI superposed with the corresponding nuclei image, which was further cross-compared with the corresponding cluster map to determine which region each cluster belongs to (i.e., plasma-membrane, cytoplasm, or nucleus).
Temporal clustering. For each spatial cluster, time-correlated PALM (tc-PALM) analysis was performed along the time axis to extract the truly colocalized, time-correlated multimolecule bursting events (11, 13-14). The lifetime of a burst is simply defined as the timespan from the first to the last detections. More details about the quantitative validations and statistics of tc-PALM analysis can be found in NOTES and FIG. 11.
Widefield, live-cell, super-resolution imaging was performed in a photo-activation localization microscopy (PALM) approach using a Nikon Eclipse Ti microscope with a 100× oil immersion objective. The 405 nm and 561 nm laser beams were combined in an external platform with customized power densities to image Dendra2-tagged molecules as previously reported^24. Cells were cultured on imaging dishes (MatTek, P35G-1.5-20-C) and then imaged while maintaining both the temperature at 37° C. with a temperature-controlled platform and the level of CO2 at 5% with Leibovitz's L-15 Medium with no phenol red (Thermo Fisher, 21083027). During each imaging cycle, a 2400-frame video stream including a (256 pixel)^2 region of interest (ROI) was recorded in 20 Hz acquisition rate with the EM-gain setting as 1000 on an Andor iXon Ultra 897 EMCCD. Each pixel conjugates with a (160 nm)^2 area on the sample side. After PALM imaging, the Hoechst-stained nuclei of the same ROI were imaged using a stronger 405 nm excitation through DAPI filter. […] Following a 5-minute wait, the cells were imaged for 15-20 minutes.

[3] = test system: transcriptional condensates at SMAD7; experiment: IR-GFP and SMAD7 intronic RNA FISH colocalization in HepG2 cells; conditions: insulin sensitive cells; H2O2; 3 nM insulin 5 min (FIG. 6E)

SMILES	IR condensates defects (signal intensity and lifetime) (IR condensates [1]; insulin-resistant cells, 1 mM NAC 24 hours (FIGS. 19E-19F, 40B))	incorporation of IR into condensates with insulin stimulation (IR condensates [1]; insulin sensitive cells, 20 mM H2O2 for 30 min)	IR condensate dynamics (IR condensates [2])	IR incorporation in transcriptional condensates [3]
CC(=O)N[C@@H](CS)C(=O)O [NAC, N-acetyl cysteine, reference compound]	partially rescued IR condensates defects			
OO [H2O2, reference compound]		caused a reduction in the incorporation of IR into condensates with insulin stimulation	caused reduced IR condensate dynamics; also recorded: altered IR condensate dynamics	caused a reduction in IR incorporation in transcriptional condensates

Reference: US20250186379A1, “METHODS AND AGENTS FOR DECREASING INSULIN RESISTANCE” (Whitehead Institute for Biomedical Research, priority 2021, published 2025)
